Reference: ChEMBL document CHEMBL4431381 (Bioorg Med Chem, 2016)
Active and inactive are the calls of the source. The calls are words filed in the database; no cut-off is given here.

Columns and labels:
[1] = Drug uptake in Long-Evans rat brain at 0.4 mCi, iv through bolus administration by PET analysis; assay type: ADME, organism-based; conditions: in vivo
[2] = Drug uptake in C57BL/6 mouse brain incubated for 40 mins followed by compound wash out for 10 secs and addition of compound for 30 to 60 mins in presence of 400 uM LM11A-24 by autoradiographic analysis; assay type: ADME, tissue-based
[3] = Drug uptake in Long-Evans rat bladder at 0.4 mCi, iv through bolus administration by PET analysis; assay type: ADME, organism-based, Urinary bladder; conditions: in vivo
[4] = Drug uptake in C57BL/6 mouse DRG neurons incubated for 40 mins measured after 30 to 60 mins by autoradiographic analysis; assay type: ADME, cell-based; conditions: drg neuron
[5] = Drug uptake in C57BL/6 mouse DRG neurons incubated for 40 mins followed by compound wash out for 10 secs and addition of compound for 30 to 60 mins by autoradiographic analysis; assay type: ADME, cell-based; conditions: drg neuron
[6] = Drug uptake in C57BL/6 mouse brain incubated for 40 mins followed by compound wash out for 10 secs and addition of compound for 30 to 60 mins by autoradiographic analysis; assay type: ADME, tissue-based
[7] = Drug uptake in C57BL/6 mouse brain incubated for 40 mins followed by compound wash out for 10 secs and addition of compound for 30 to 60 mins in presence of 10 uM LM11A-24 by autoradiographic analysis; assay type: ADME, tissue-based
Mus musculus = organism: Mus musculus; experiment: Effect on carbachol-mediated persistant firing of entorhinal cortex in p75NTR deficient C57BL/6 mouse brain at 10 nM after 15 mins by current-clamp technique; assay type: functional
[8] = Hydrophilicity, logD of the compound; assay type: physicochemical; conditions: octanol/water
[9] = biological target: T1, Tumor necrosis factor receptor superfamily member 16 (Mus musculus, UniProt Q9Z0W1); experiment: (§1) Activation of p75NTR in C57BL/6 mouse brain assessed as suppression of carbachol-mediated persistant firing of entorhinal cortex after 15 mins by current-clamp technique; assay type: tissue-based
T1 sequence (Q9Z0W1 whole entry): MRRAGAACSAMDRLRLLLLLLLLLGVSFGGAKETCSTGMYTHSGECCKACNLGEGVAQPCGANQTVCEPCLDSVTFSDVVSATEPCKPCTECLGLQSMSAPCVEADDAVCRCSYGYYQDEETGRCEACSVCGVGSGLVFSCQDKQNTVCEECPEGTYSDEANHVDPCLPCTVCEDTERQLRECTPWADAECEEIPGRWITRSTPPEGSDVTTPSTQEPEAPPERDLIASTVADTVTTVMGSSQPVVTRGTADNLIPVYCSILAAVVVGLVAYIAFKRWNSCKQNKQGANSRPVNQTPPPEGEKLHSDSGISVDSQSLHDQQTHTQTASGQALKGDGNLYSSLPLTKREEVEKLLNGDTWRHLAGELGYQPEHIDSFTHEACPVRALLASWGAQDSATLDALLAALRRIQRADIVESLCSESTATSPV

[10] = biological target: T2, Tumor necrosis factor receptor superfamily member 16 (Mus musculus) (UniProt Q9Z0W1); experiment: as §1; assay type: tissue-based
T2 sequence (whole entry): T1 sequence (Q9Z0W1 whole entry)

[11] = biological target: T3, Tumor necrosis factor receptor superfamily member 16 (Rattus norvegicus) (UniProt P07174); experiment: Binding affinity to p75NTR in Long-Evans rat brain at 300 uCi incubated for 40 mins followed by compound wash out for 10 secs and addition of compound for 2 hrs by autoradiographic analysis; assay type: tissue-based; conditions: tested as the 11C-labelled form
T3 sequence (whole entry): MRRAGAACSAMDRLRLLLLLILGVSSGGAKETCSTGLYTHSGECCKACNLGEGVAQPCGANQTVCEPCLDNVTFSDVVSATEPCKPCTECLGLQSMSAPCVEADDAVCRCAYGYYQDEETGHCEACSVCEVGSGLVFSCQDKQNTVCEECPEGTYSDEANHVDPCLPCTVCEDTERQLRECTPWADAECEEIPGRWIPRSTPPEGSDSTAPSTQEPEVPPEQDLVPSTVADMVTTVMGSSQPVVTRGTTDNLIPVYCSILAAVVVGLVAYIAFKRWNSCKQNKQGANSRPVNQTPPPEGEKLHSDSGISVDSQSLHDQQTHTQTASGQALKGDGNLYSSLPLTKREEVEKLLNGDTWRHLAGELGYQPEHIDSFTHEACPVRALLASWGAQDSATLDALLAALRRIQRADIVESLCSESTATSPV

Structure (SMILES) | Drug uptake [1] | Drug uptake [2] | Drug uptake [3] | Drug uptake [4] | Drug uptake [5] | Drug uptake [6] | Drug uptake [7] | Activity (Mus musculus) | logD [8] | EC50 [9] [nM] | Activity [10] | Activity [11]
CN([11CH3])CCCNC(=O)Cn1cnc2c1c(=O)n(C)c(=O)n2C | Not Active | Active | Active | Not Active | Not Active | Active | Active | – | – | – | – | –
CN(C)CCCNC(=O)Cn1cnc2c1c(=O)n(C)c(=O)n2C | – | – | – | – | – | – | – | inactive | -3 | < 10 | Dose-dependent effect | inactive
